Data published in patent US9603896B2, “Peptide compounds and methods of production and use thereof” (priority 2012, dated 2017).
Ends that are not written are not given here.

Legend:
[1] = system: mouse cornea; test: In vivo model of corneal wound healing (corneal epithelial abrasion)
Procedure: The in vivo model of wound healing was carried out using a disposable biopsy punch (2 mm, Miltex, York, Pa.) to demarcate the mouse cornea and a 0.5 mm burr using the AlgerBrush II (The Alger Company, Inc., Lago Vista, Tex.) to remove the corneal epithelium. The corneal abrasions were treated at 0 and 16 hours with peptide 95-122 (10^−5 M), peptide 120-146WH (10^−6 M and 10^−8M), peptide 120-146WR ((10^−6 M and 10^−8M), or vehicle control (0.9% sodium chloride, pH 5.5, Baxter, Deerfield, Ill.). Corneal abrasions were visualized using sterile fluorescein sodium ophthalmic strips USP (Fluorets®, Chauvin Laboratory, Aubenas, France) dampened with sterile PBS. Images were taken at 0, 16, and 24 hours immediately following fluorescein staining.
Mice were anesthetized using ketamine (100 mg/kg; Bionichepharma, LLC., St. Lake Forrest, Ill.) and xylazine ([…]; Rompun; Bayer Corp., Shawnee Mission, Kans.), and the right cornea was wounded as follows. A disposable biopsy punch (2 mm, Miltex, York, Pa.) was used to demarcate the mouse cornea. The corneal epithelium was carefully removed within the 2 mm demarcated area with a 0.5 mm burr using the AlgerBrush II (The Alger Company, Inc., Lago Vista, Tex.). The corneal abrasions were treated at 0 and 16 hours with HB-EGF (250 ng/ml), rCAP37 (250 ng/ml), or vehicle control (0.9% sodium chloride, pH 5.5, Baxter, Deerfield, Ill.). Corneal abrasions were visualized using sterile fluorescein sodium ophthalmic strips USP (FLUORETS®, Chauvin Laboratory, Aubenas, France) dampened with sterile PBS. Images were taken at 0, 16, 24, and 48 hours immediately following fluorescein staining using a surgical microscope equipped with a camera (Carl Zeiss OPMI VISU 140, Carl Zeiss Surgical, Inc., Oberkochen, Germany). The areas of the open wound were quantitated using ImageJ software (US National Institutes of Health), and the results were reported as the percentage of wound closure.
Whole mouse eyes were collected for histology at 0, 6, 16, 24, and 48 hours post wounding and were immediately placed in Prefer fixative (Anatech LTD., Battle Creek, Mich.) for 20 minutes before being transferred to 70% ethanol. Tissues were paraffin-embedded and cut at a thickness of 5 μm, mounted on SUPERFROSTPLUS® slides (Statlab Medical Products, Lewisville, Tex.), and subsequently deparaffinized, rehydrated, and washed in deionized water. Sections were stained with hematoxylin (Leica Microsystems, Buffalo Grove, Ill.) and rinsed twice in deionized water before being washed in Blue Buffer (Leica Microsystems). The sections were finally washed in deionized water and 95% ethanol prior to being counterstained with eosin (Leica Microsystems). Sections were dehydrated in ethanol and cleared in xylene.

[2] = system: swine skin; test: Swine full thickness excisional dermal wound model; type: in vivo; conditions: for Mean Wound Healing (%): topical 3 mg/ml, 0.20 ml per wound daily; for histology: epidermal resurfacing and maturation vs saline control: day 14 post-wounding; for dermal wound healing vs saline: topically at 3 mg/ml, over 14 days; for Histopathology Results, Mean Angiogenesis / Histopathology Results, Mean Epithelization / Histopathology Results, Mean Granulation / Histopathology Results, Mean Inflammation: wounds harvested day 14, 3 mg/ml topical
Procedure: In this Example, peptide compounds of the presently disclosed and claimed inventive concept(s) were evaluated as to their activity on the dermal wound healing process in a clinically relevant swine full thickness excisional wound model. Three different peptide formulations (Group B, Peptide 95-122 (SEQ ID NO:26); Group C, Peptide 120-146WH (SEQ ID NO:31); and Group D, Peptide 120-146QH-5RMP (SEQ ID NO:33)) were each evaluated at the same concentration (3 mg/ml). Sterile saline served as the control (Group A).
Full thickness excisional wounds were induced on the dorsum of swine (N=3) using a 1.0 cm biopsy punch. Treatments were administered (0.20 ml) to each wound (N=6 wounds per group), and the wounds were dressed with standard occlusive dressing ([…]™, 3M Corporation, St. Paul, Minn.). Treatments were reapplied daily and dressings changed. Clinical wound healing observations and wound area (2 mm) measurements were performed on days 0, 3, 5, 7, 10, and 14 post-wounding. Wound area (2 mm) data were expressed as percentage (%) of wound healing. Animals were terminated on day 14 with wounds harvested and processed for histological evaluation. […] All peptide formulation treatment groups healed faster with greater rate of closure and re-epithelialization over time, as compared to the saline control (Group A).

## GTRCQVAGWGSWHSGGRLSRFPRFVNV [Peptide 120-146WH]
[1]; 10^−8M or 10^−6M at 0 and 16 hours, closure at 16 and 24 hours
  amount of corneal wound healing vs vehicle-treated: significantly greater
[2]; Day 0
  Mean Wound Healing (%): 0.0%
[2]; Day 3
  Mean Wound Healing (%): 22.1%
[2]; Day 5
  Mean Wound Healing (%): 35.9%
[2]; Day 7
  Mean Wound Healing (%): 59.7%
[2]; Day 10
  Mean Wound Healing (%): 93.5%
[2]; Day 14
  Mean Wound Healing (%): 97.5%
[2]
  histology: epidermal resurfacing and maturation vs saline control: greater extent of epidermal resurfacing and maturation of the epidermis
  dermal wound healing vs saline: accelerate dermal wound healing
  Histopathology Results, Mean Angiogenesis: 1.7
  Histopathology Results, Mean Epithelization: 3.7
  Histopathology Results, Mean Granulation: 4.0
  Histopathology Results, Mean Inflammation: 0.5

## LDREANLTSSVTILPLPLQNATVEAGTR (listed as Homo sapiens) [Peptide 95-122]
[1]; 10^−5 M at 0 and 16 hours
  corneal wound healing (wound closure at 16 and 24 hours) vs vehicle: promotes corneal wound healing
[2]; Day 0
  Mean Wound Healing (%): 0.0%
[2]; Day 14
  Mean Wound Healing (%): 100.0%
[2]
  histology: epidermal resurfacing and maturation vs saline control: greater extent of epidermal resurfacing and maturation of the epidermis
  dermal wound healing vs saline: accelerate dermal wound healing
  Histopathology Results, Mean Angiogenesis: 2.3
  Histopathology Results, Mean Epithelization: 4.0
  Histopathology Results, Mean Granulation: 4.0
  Histopathology Results, Mean Inflammation: 0.5
